Source: US20240400553A1, “AMINE BASED MATRIPTASE 2 INHIBITORS AND USES THEREOF” (Disc Medicine, Inc., priority 2023, published 2024)
pKi: −log10 of the molar value.

target: T1, Human Recombinant Matriptase 2 (Homo sapiens, UniProt Q8IU80); test: Matriptase 2 inhibition, fluorescence based assay (Method I); type: biochemical; conditions: Table A; Ki of Matriptase-2; read-out: Mat-2 Ki
T1 construct: made in house
T1 sequence (Q8IU80 1-811): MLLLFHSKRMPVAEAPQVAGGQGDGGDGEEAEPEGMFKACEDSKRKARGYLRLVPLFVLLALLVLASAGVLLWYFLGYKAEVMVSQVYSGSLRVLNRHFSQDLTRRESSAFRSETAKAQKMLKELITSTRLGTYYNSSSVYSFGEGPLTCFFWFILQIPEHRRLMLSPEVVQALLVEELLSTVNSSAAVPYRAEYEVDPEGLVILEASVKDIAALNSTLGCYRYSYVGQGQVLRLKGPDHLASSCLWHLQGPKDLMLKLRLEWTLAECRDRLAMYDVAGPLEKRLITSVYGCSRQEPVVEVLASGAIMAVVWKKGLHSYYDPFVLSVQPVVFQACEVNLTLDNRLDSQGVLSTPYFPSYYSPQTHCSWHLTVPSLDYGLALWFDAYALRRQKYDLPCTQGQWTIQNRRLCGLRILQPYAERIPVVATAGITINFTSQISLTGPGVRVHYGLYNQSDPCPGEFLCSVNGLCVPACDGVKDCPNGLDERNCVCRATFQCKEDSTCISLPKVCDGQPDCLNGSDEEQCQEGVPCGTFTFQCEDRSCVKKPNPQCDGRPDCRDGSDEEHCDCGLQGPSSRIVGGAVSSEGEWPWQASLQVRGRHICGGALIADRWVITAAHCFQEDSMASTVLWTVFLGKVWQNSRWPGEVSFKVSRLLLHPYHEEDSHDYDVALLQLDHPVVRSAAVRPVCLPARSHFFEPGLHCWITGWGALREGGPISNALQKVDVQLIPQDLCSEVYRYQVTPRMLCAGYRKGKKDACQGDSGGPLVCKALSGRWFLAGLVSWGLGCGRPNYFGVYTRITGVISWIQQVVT
Method: • Method I: Test compounds were evaluated for their potential to inhibit Human Recombinant Matriptase 2 (in-house) using fluorescence based assay. The concentration of Recombinant Matriptase 2 and the substrate used in the assay was: 3.5 nM (In-house Matriptase 2) and 62 μM (Boc-Gln-Ala-Arg-7-amido-4-methyl coumarin hydrobromide −Cat log: I-1550 from Bachem) respectively. The assay buffer used was 50 mM TRIS pH 7.5, 150 mM NaCl, 0.01% Gelatin TCL059 Himedia). The assay was performed using 384 well black flat bottom plate from grenier (Cat log: 781076) at 25° C. The enzyme and compound were preincubated for 30 mins, the plate was read at 60 mins after substrate addition at wavelength Ex: 360/Em: 480 nm. The final assay volume was 20 μl. A stock solution of compounds was initially prepared in DMSO and appropriate dilutions were made and IC50 was determined for all the compounds (final DMSO conc in the assay was 1%). All the measurements were carried out using the Spectramax M5, Molecular devices.
To determine Ki values, dose response curves were generated by plotting percentage inhibition as a function of inhibitor concentration and the data was fitted to sigmoidal non-linear regression equation (variable slope) using Graph Pad prism software V8.

SMILES | pKi
CC(CCN(C)C)S(=O)(=O)Nc1cc(Cn2c(C(=O)O)cc3ccc(CN)nc32)c2ccccc2c1 (racemic) [Compound 8, 6-(aminomethyl)-1-((3-((3-(dimethylamino)-1-methylpropyl)sulfonamido)naphthalen-1-yl)methyl)-1H-pyrrolo[2,3-b]pyridine-2-carboxylic acid] | 6.30 to 7.00
CN1CCC[C@H](COC(=O)c2cc3ccc(CN)nc3n2Cc2cc(NS(=O)(=O)Cc3ccccc3)cc3ccccc23)C1 (racemic) [Compound 24, (1-methylpiperidin-3-yl)methyl 6-(amino-methyl)-1-{[3-(phenyl-methanesulfonamido)-naphthalen-1-yl]methyl}-1H-pyrrolo[2,3-b]pyr-idine-2-carboxylate] | ≥ 7.00
CN1CC[C@H](COC(=O)c2cc3ccc(CN)nc3n2Cc2cc(NS(=O)(=O)Cc3ccccc3)cc3ccccc23)CC1=O (racemic) [Compound 30, rac-[(4R)-1-methyl-2-oxopiperidin-4-yl]meth-yl 6-(aminomethyl)-1-{[3-(phenylmethane-sulfonamido)naphthalen-1-yl]methyl}-1H-pyr-rolo[2,3-b]pyridine-2-carboxylate] | ≥ 7.00
NCc1ccc2cc(C(=O)OCC[C@H]3CCCCN3)n(Cc3cc(NS(=O)(=O)Cc4ccccc4)cc4ccccc34)c2n1 (racemic) [Compound 32, 2-(piperidin-2-yl)ethyl 6-(aminomethyl)-1-{[3-(phenylmethanesulfon-amido)naphthalen-1-yl]-methyl}-1H-pyrrolo[2,3-b]pyridine-2-carboxylate] | ≥ 7.00
CN1CCN[C@@H](COC(=O)c2cc3ccc(CN)nc3n2Cc2cc(NS(=O)(=O)Cc3ccccc3)cc3ccccc23)C1 (racemic) [Compound 41, (4-methylpiperazin-2-yl)methyl 6-(aminometh-yl)-1-{[3-(phenylmeth-ane-sulfonamido)naph-thalen-1-yl]methyl}-1H-pyrrolo[2,3-b]pyridine-2-carboxylate] | ≥ 7.00
CC[C@@H](COC(=O)c1cc2ccc(CN)nc2n1Cc1cc(NS(=O)(=O)Cc2ccccc2)cc2ccccc12)N(C)C (racemic) [Compound 54, rac-(2R)-2-(dimethyl-amino)butyl 6-(amino-methyl)-1-{[3-(phenyl-methanesulfonamido)-naphthalen-1-yl]methyl}-1H-pyrrolo[2,3-b]pyr-idine-2-carboxylate] | ≥ 7.00
CN1CCCC[C@@H]1COC(=O)c1cc2ccc(CN)nc2n1Cc1cc(NS(=O)(=O)Cc2ccccc2)cc2ccccc12 (racemic) [Compound 63, (1-methylpiperidin-2-yl)methyl 6-(aminometh-yl)-1-{[3-(phenylmeth-anesulfonamido)naph-thalen-1-yl]lmethyl}-1H-pyrrolo[2,3-b]pyridine-2-carboxylate] | ≥ 7.00
CC(=O)O[C@H](C)OC(=O)c1cc2ccc(CN)nc2n1Cc1cc(NS(=O)(=O)Cc2ccccc2)cc2ccccc12 (racemic) [Compound 89, 1-[6-(aminomethyl)-1-{[3-(phenylmethanesul-fonamido)naphthalen-1-yl]methyl}-1H-pyrrolo-[2,3-b]pyridine-2-carbon-yloxy]ethyl acetate] | 6.30 to 7.00
NCc1ccc2cc(C(=O)O)n(Cc3cc(NS(=O)(=O)[C@H](F)c4ccccc4)cc4ccccc34)c2n1 (racemic) [Compound 98, 6-(aminomethyl)-1-({3-[fluoro(phenyl)methane-sulfonamido]naphthalen-1-yl}methyl)-1H-pyr-rolo[2,3-b]pyridine-2-carboxylic acid] | 6.30 to 7.00
CC(C)C(=O)O[C@H](C)OC(=O)c1cc2ccc(CN)nc2n1Cc1cc(NS(=O)(=O)Cc2ccccc2)cc2ccccc12 (racemic) [Compound 118, 1-[6-(aminomethyl)-1-{[3-(phenylmethanesul-fonamido)naphthalen-1-yl]methyl}-1H-pyrrolo-[2,3-b]pyridine-2-car-bonyloxylethyl 2-meth-ylpropanoate] | 5.52 to 6.30

More lines, now with the values ahead:

pKi | SMILES
≥ 7.00 | C[C@@H](c1ccccc1)S(=O)(=O)Nc1cc(Cn2c(C(=O)OCC3CCN(C)CC3)cc3ccc(CN)nc32)c2ccccc2c1 (racemic) [Compound 11, (1-methylpiperidin-4-yl)methyl 6-(aminometh-yl)-1-{[3-(1-phenyl-ethanesulfonamido)naph-thalen-1-yl]methyl}-1H-pyrrolo[2,3-b]pyridine-2-carboxylate]
≥ 7.00 | CN1CCC(COC(=O)c2cc3ccc(CN)nc3n2Cc2cc(NS(=O)(=O)[C@H](F)c3ccccc3)cc3ccccc23)CC1 (racemic) [Compound 23, (1-methylpiperidin-4-yl)methyl 6-(amino-methyl)-1-({3-[fluoro-(phenyl)methanesulfon-amido]naphthalen-1-yl}-methyl)-1H-pyrrolo[2,3-b]pyridine-2-carboxylate]
≥ 7.00 | CN1CC[C@H](CNC(=O)c2cc3ccc(CN)nc3n2Cc2cc(NS(=O)(=O)Cc3ccccc3)cc3ccccc23)CC1=O (racemic) [Compound 37, rac-6-(aminomethyl)-N-{[(4R)-1-methyl-2-oxo-piperidin-4-yl]methyl}-1-{[3-(phenylmethane-sulfonamido)naphthalen-1-yl]methyl}-1H-pyr-rolo[2,3-b]pyridine-2-carboxamide]
≥ 7.00 | C[C@H](OC(=O)c1cc2ccc(CN)nc2n1Cc1cc(NS(=O)(=O)Cc2ccccc2)cc2ccccc12)C1CCN(C)CC1 (racemic) [Compound 48, 1-(1-methylpiperidin-4-ylethyl 6-(aminomethyl)-1-{[3-(phenylmethane-sulfonamido)naphthalen-1-yl]methyl}-1H-pyr-rolo[2,3-b]pyridine-2-carboxylate]
≥ 7.00 | CN1CCN(C)[C@@H](COC(=O)c2cc3ccc(CN)nc3n2Cc2cc(NS(=O)(=O)Cc3ccccc3)cc3ccccc23)C1 (racemic) [Compound 51, (1,4-dimethylpiperazin-2-yl)methyl 6-(amino-methyl)-1-{[3-(phenyl-methanesulfonamido)-naphthalen-1-yl]methyl}-1H-pyrrolo[2,3-b]pyr-idine-2-carboxylate]
≥ 7.00 | CN1CCO[C@@H](COC(=O)c2cc3ccc(CN)nc3n2Cc2cc(NS(=O)(=O)Cc3ccccc3)cc3ccccc23)C1 (racemic) [Compound 64, (4-methylmorpholin-2-yl)methyl 6-(aminometh-yl)-1-{[3-(phenylmeth-anesulfonamido)naph-thalen-1-yl]methyl}-1H-pyrrolo[2,3-b]pyridine-2-carboxylate]
≥ 7.00 | C[C@@H](c1ccccc1)S(=O)(=O)Nc1cc(Cn2c(C(=O)O)cc3ccc(CN)nc32)c2ccccc2c1 (racemic) [Compound 73, 6-(aminomethyl)-1-{[3-(1-phenylethanesulfon-amido)naphthalen-1-yl]-methyl}-1H-pyrrolo[2,3-b]pyridine-2-carboxylic acid]
6.30 to 7.00 | CN1CCC[C@H](OC(=O)c2cc3ccc(CN)nc3n2Cc2cc(NS(=O)(=O)Cc3ccccc3)cc3ccccc23)C1 (racemic) [Compound 99, 1-methylpiperidin-3-yl 6-(aminomethyl)-1-{[3-(phenylmethanesulfon-amido)naphthalen-1-yl]-methyl}-1H-pyrrolo[2,3-b]pyridine-2-carboxylate]
6.30 to 7.00 | NCc1ccc2cc(C(=O)OC[C@H]3CCCN3)n(Cc3cc(NS(=O)(=O)Cc4ccccc4)cc4ccccc34)c2n1 (racemic) [Compound 108, rac-[(2R)-pyrrolidin-2-yl]methyl 6-(aminometh-yl)-1-{[3-(phenylmeth-anesulfonamido)naph-thalen-1-yl]methyl}-1H-pyrrolo[2,3-b]pyridine-2-carboxylate]
